Reference: PubChem BioAssay AID248 (DTP/NCI, 2004)
Inconclusive results and toxic doses are left out. No stated cut-off is given here; in the data, active means T/C of 150% or more; inactive means T/C below 125%.

Tested on: L1210 leukemia ip in BDF1 mice, survival T/C
Test: NCI In Vivo Anticancer Drug Screen. Data for tumor model L1210 Leukemia (intraperitoneal) in B6D2F1 (BDF1) mice
Details: endpoint: mean survival time, higher = longer survival
In short: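 Tumor was transplanted into mice, which were then dosed with test compound or vehicle alone. Survival was recorded for each group, and the treated figure was expressed relative to the control figure.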

[1] = dose: 100.0 mg/kg/injection, schedule: Q01DX009 (ip), vehicle: saline with Tween-80
[2] = dose: 100.0 mg/kg/injection, schedule: Q01DX001 (ip), vehicle: saline
[3] = dose: 200.0 mg/kg/injection, schedule: Q01DX001 (ip), vehicle: saline
[4] = dose: 400.0 mg/kg/injection, schedule: Q01DX001 (ip), vehicle: saline
[5] = dose: 50.0 mg/kg/injection, schedule: Q04DX002 (ip), vehicle: Klucel (hydroxypropylcellulose) (HPC)
[6] = dose: 100.0 mg/kg/injection, schedule: Q04DX002 (ip), vehicle: Klucel (hydroxypropylcellulose) (HPC)
[7] = dose: 200.0 mg/kg/injection, schedule: Q04DX002 (ip), vehicle: Klucel (hydroxypropylcellulose) (HPC)
[8] = dose: 50.0 mg/kg/injection, schedule: Q01DX001 (ip), vehicle: saline
[9] = dose: 100.0 mg/kg/injection, schedule: Q04DX003 (ip), vehicle: saline with Tween-80
[10] = dose: 200.0 mg/kg/injection, schedule: Q04DX003 (ip), vehicle: saline with Tween-80
[11] = dose: 400.0 mg/kg/injection, schedule: Q04DX003 (ip), vehicle: saline with Tween-80
[12] = dose: 100.0 mg/kg/injection, schedule: Q01DX009 (ip), vehicle: Klucel (hydroxypropylcellulose) (HPC)
[13] = dose: 100.0 mg/kg/injection, schedule: Q04DX003 (ip), vehicle: Klucel (hydroxypropylcellulose) (HPC)
[14] = dose: 200.0 mg/kg/injection, schedule: Q01DX009 (ip), vehicle: Klucel (hydroxypropylcellulose) (HPC)
[15] = dose: 200.0 mg/kg/injection, schedule: Q04DX003 (ip), vehicle: Klucel (hydroxypropylcellulose) (HPC)
[16] = dose: 400.0 mg/kg/injection, schedule: Q01DX009 (ip), vehicle: Klucel (hydroxypropylcellulose) (HPC)
[17] = dose: 400.0 mg/kg/injection, schedule: Q04DX003 (ip), vehicle: Klucel (hydroxypropylcellulose) (HPC)
[18] = dose: 100.0 mg/kg/injection, schedule: Q04DX002 (ip), vehicle: saline with Tween-80
[19] = dose: 200.0 mg/kg/injection, schedule: Q04DX002 (ip), vehicle: saline with Tween-80
[20] = dose: 400.0 mg/kg/injection, schedule: Q04DX002 (ip), vehicle: saline with Tween-80

Measured: T/C

NP(Cl)(c1ccccc1)(c1ccccc1)c1ccccc1
inactive: dose: 0.2 mg/kg/injection, schedule: Q04DX003 (ip), vehicle: Klucel (hydroxypropylcellulose) (HPC) 96 % of control | dose: 0.39 mg/kg/injection, schedule: Q04DX003 (ip), vehicle: Klucel (hydroxypropylcellulose) (HPC) 99 % of control | dose: 0.78 mg/kg/injection, schedule: Q04DX003 (ip), vehicle: Klucel (hydroxypropylcellulose) (HPC) 97 % of control

CC(C)/C=N\NC(=O)c1ccc[n+](C)c1
inactive: dose: 50.0 mg/kg/injection, schedule: Q01DX009 (ip), vehicle: saline with Tween-80 100 % of control | [1] 92 % of control

O=C1CSC(=NCCN=C2NC(=O)CS2)N1
inactive: [2] 104 % of control | [3] 111 % of control | [4] 102 % of control

O=S(=O)(CBr)/C(Br)=C/c1ccccc1
inactive: [5] 97 % of control | [6] 94 % of control | [7] 103 % of control

C1=CC2CC1CC2[P+](c1ccccc1)(c1ccccc1)c1ccccc1 (stereo not given)
inactive: dose: 12.5 mg/kg/injection, schedule: Q01DX001 (ip), vehicle: saline 117 % of control | dose: 25.0 mg/kg/injection, schedule: Q01DX001 (ip), vehicle: saline 98 % of control | [8] 95 % of control

CCCCCC(C)O[Si](C)C1(C)CCCCC1 (stereo not given)
inactive: [9] 94 % of control | [10] 94 % of control | [11] 104 % of control

COc1ccccc1NC(=O)Nc1ccc(SC)cc1
inactive: [12] 98 % of control | [13] 91 % of control | [14] 103 % of control | [15] 103 % of control | [16] 97 % of control | [17] 96 % of control

Cc1ccc(S(=O)(=O)NNC(=O)c2ccccc2NCC(O)C(O)C(O)CO)cc1 (stereo not given)
inactive: dose: 100.0 mg/kg/injection, schedule: Q01DX001 (ip), vehicle: carboxymethylcellulose (CMC) 98 % of control | dose: 200.0 mg/kg/injection, schedule: Q01DX001 (ip), vehicle: carboxymethylcellulose (CMC) 96 % of control | dose: 400.0 mg/kg/injection, schedule: Q01DX001 (ip), vehicle: carboxymethylcellulose (CMC) 98 % of control

COC(=O)Cn1nnc2ccccc21
inactive: dose: 50.0 mg/kg/injection, schedule: Q01DX009 (ip), vehicle: saline 97 % of control | dose: 100.0 mg/kg/injection, schedule: Q01DX009 (ip), vehicle: saline 105 % of control | dose: 200.0 mg/kg/injection, schedule: Q01DX009 (ip), vehicle: saline 87 % of control

C#CC(C)(O)C(C)(C)C (stereo not given)
inactive: [18] 91 % of control | [19] 95 % of control | [20] 87 % of control

Cc1ccccc1C[P+](c1ccccc1)(c1ccccc1)c1ccccc1
inactive: dose: 12.5 mg/kg/injection, schedule: Q01DX009 (ip), vehicle: acetone 101 % of control | dose: 12.5 mg/kg/injection, schedule: Q04DX003 (ip), vehicle: saline 96 % of control | dose: 25.0 mg/kg/injection, schedule: Q04DX003 (ip), vehicle: saline 102 % of control | dose: 50.0 mg/kg/injection, schedule: Q04DX003 (ip), vehicle: saline 106 % of control

O=c1[nH][nH]c(=O)c2[nH]cnc12
inactive: [12] 107 % of control | [13] 104 % of control | [14] 103 % of control | [15] 104 % of control | [16] 117 % of control | [17] 117 % of control

O=C1OCC/C1=C/OCCCCCO/C=C1/CCOC1=O
inactive: [6] 106 % of control | [7] 97 % of control | dose: 400.0 mg/kg/injection, schedule: Q04DX002 (ip), vehicle: Klucel (hydroxypropylcellulose) (HPC) 90 % of control

C/C(=C\C(=N\NC(=N)N)c1ccccc1)c1ccccc1
inactive: dose: 1.87 mg/kg/injection, schedule: Q01DX Z (ip), vehicle: carboxymethylcellulose (CMC) 94 % of control | dose: 3.75 mg/kg/injection, schedule: Q01DX Z (ip), vehicle: carboxymethylcellulose (CMC) 97 % of control | dose: 7.5 mg/kg/injection, schedule: Q01DX Z (ip), vehicle: carboxymethylcellulose (CMC) 88 % of control | dose: 7.5 mg/kg/injection, schedule: Q01DX Z (oral), vehicle: carboxymethylcellulose (CMC) 108 % of control | dose: 15.0 mg/kg/injection, schedule: Q01DX Z (ip), vehicle: carboxymethylcellulose (CMC) 98 % of control | dose: 15.0 mg/kg/injection, schedule: Q01DX Z (oral), vehicle: carboxymethylcellulose (CMC) 106 % of control | dose: 30.0 mg/kg/injection, schedule: Q01DX Z (oral), vehicle: carboxymethylcellulose (CMC) 100 % of control | dose: 60.0 mg/kg/injection, schedule: Q01DX Z (oral), vehicle: carboxymethylcellulose (CMC) 108 % of control

COC1OC(COC(c2ccccc2)(c2ccccc2)c2ccccc2)C(OC(=S)SCc2ccccc2)C(OC)C1OC (stereo not given)
inactive: dose: 25.0 mg/kg/injection, schedule: Q04DX002 (ip), vehicle: Klucel (hydroxypropylcellulose) (HPC) 108 % of control | [5] 104 % of control | [6] 104 % of control

COC1OC(C)CC(O)C1O (stereo not given)
inactive: dose: 100.0 mg/kg/injection, schedule: Q04DX003 (ip), vehicle: saline 97 % of control | dose: 200.0 mg/kg/injection, schedule: Q04DX003 (ip), vehicle: saline 103 % of control | dose: 400.0 mg/kg/injection, schedule: Q04DX003 (ip), vehicle: saline 109 % of control

CC(=O)C(=Cc1ccccc1Cl)C(C)=O
inactive: dose: 100.0 mg/kg/injection, schedule: Q01DX001 (ip), vehicle: Klucel (hydroxypropylcellulose) (HPC) 104 % of control | [13] 94 % of control | dose: 200.0 mg/kg/injection, schedule: Q01DX001 (ip), vehicle: Klucel (hydroxypropylcellulose) (HPC) 98 % of control | [15] 91 % of control | dose: 400.0 mg/kg/injection, schedule: Q01DX001 (ip), vehicle: Klucel (hydroxypropylcellulose) (HPC) 90 % of control | [17] 100 % of control

CCC(Cl)COP(=O)(OCC(Cl)CC)C(CC)OP(=S)(OCC(Cl)CC)OCC(Cl)CC (stereo not given)
inactive: dose: 87.5 mg/kg/injection, schedule: Q01DX009 (ip), vehicle: Klucel (hydroxypropylcellulose) (HPC) 95 % of control | dose: 175.0 mg/kg/injection, schedule: Q01DX009 (ip), vehicle: Klucel (hydroxypropylcellulose) (HPC) 99 % of control

O=c1cc(/C=N\Nc2ccc([N+](=O)[O-])cc2)[nH]c(=O)[nH]1
inactive: [8] 106 % of control | [2] 95 % of control | [3] 101 % of control | [4] 90 % of control

O=[N+]([O-])c1ccc(S(=O)C2CCCCC2Cl)c([N+](=O)[O-])c1 (stereo not given)
inactive: [12] 111 % of control

CN(C)S(=O)(=O)c1ccc(N=NN2CCOCC2)cc1
inactive: [18] 115 % of control | [19] 97 % of control | [20] 108 % of control

CC(=O)C(C)(CCC(=O)NC(C)(C)C)CCC(=O)NC(C)(C)C
inactive: [1] 94 % of control | [9] 95 % of control | dose: 200.0 mg/kg/injection, schedule: Q01DX009 (ip), vehicle: saline with Tween-80 100 % of control | [10] 95 % of control | dose: 400.0 mg/kg/injection, schedule: Q01DX009 (ip), vehicle: saline with Tween-80 93 % of control | [11] 93 % of control

COc1ccccc1N=Nc1c(O)[nH]c2ccccc12
inactive: [2] 96 % of control | [3] 96 % of control | [4] 102 % of control

CN(C)c1ccc(/C=N/NC(=O)c2ccncc2)c(Cl)c1
inactive: [12] 96 % of control | [14] 89 % of control | [16] 91 % of control

CN(C)CCN(CC(=O)O)CC(=O)O
inactive: [2] 100 % of control | [3] 102 % of control | [4] 100 % of control
